Measurements: PubChem BioAssay (NCI)
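Following 48 hours of exposure in 96-well plates, responses at five concentrations were used to interpolate endpoints linearly. At the GI50, growth is halved. TGI denotes the concentration required for complete inhibition of growth.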

How the values were obtained:
Assay in all cases: inhibition of tumour cell growth, NCI panel, 48 h
MCF7 breast = test system: MCF7 breast
HCT-15 colon = test system: HCT-15 colon
OVCAR-4 ovarian = test system: OVCAR-4 ovarian
K-562 leukemia = test system: K-562 leukemia
NCI-H522 lung = test system: NCI-H522 lung
OVCAR-3 ovarian = test system: OVCAR-3 ovarian
DU-145 prostate = test system: DU-145 prostate
M14 melanoma = test system: M14 melanoma
UO-31 renal = test system: UO-31 renal
A549 NSCLC = test system: A549 NSCLC

Compound | GI50 (MCF7 breast) | TGI (MCF7 breast) | GI50 (HCT-15 colon) | TGI (HCT-15 colon) | GI50 (OVCAR-4 ovarian) | TGI (OVCAR-4 ovarian) | GI50 (K-562 leukemia) | TGI (K-562 leukemia) | GI50 (NCI-H522 lung) | TGI (NCI-H522 lung) | GI50 (OVCAR-3 ovarian) | TGI (OVCAR-3 ovarian) | GI50 (DU-145 prostate) | TGI (DU-145 prostate) | GI50 (M14 melanoma) | TGI (M14 melanoma) | GI50 (UO-31 renal) | TGI (UO-31 renal) | GI50 (A549 NSCLC) | TGI (A549 NSCLC)
CCOC(=O)C(Cc1ccccc1)n1c(O)c(/C=N/c2ncc(Cc3ccc(Cl)cc3Cl)s2)sc1=S (stereo not drawn) | 2.36 µM | > 100 µM | 0.548 µM | > 100 µM | 3.22 µM | > 100 µM | 2.03 µM | > 100 µM | 1.31 µM | 5.7 µM | 2.84 µM | 9.96 µM | 3.9 µM | > 100 µM | 3.02 µM | 16.7 µM | 1.97 µM | 5.31 µM | 3.68 µM | > 100 µM
COC(=O)C1C(=O)C(C(=O)OC)C2CCC1N2C (stereo not drawn) |  | > 100 µM |  | > 100 µM |  | > 100 µM |  | > 100 µM |  | > 100 µM |  | > 72.1 µM |  | > 100 µM |  | > 100 µM |  | > 100 µM |  | > 100 µM
Cc1cc(NS(=O)(=O)c2ccc(-c3cnc(C4CC4)o3)cc2)ccc1Cl | 0.0708 µM | 12.2 µM | 0.116 µM | 12.7 µM | 1.86 µM | 19.5 µM | 0.0567 µM | > 100 µM | 0.0761 µM | 3.38 µM | 0.0745 µM | 11.4 µM | 0.455 µM | 15.1 µM | 0.192 µM | 15.9 µM | 0.835 µM | 12.5 µM | 0.437 µM | 14.9 µM
CC1(C)CCC2(C(=O)O)C(O)CC3(C)C(=CCC4C5(C)CCC(OC6OCC(O)C(O)C6OC6OCC(O)C(O)C6OC6OCC(O)C(OC7OC(CO)C(O)C(O)C7O)C6O)C(C)(C)C5CCC43C)C2C1 (stereo not drawn) |  | > 100 µM |  | > 100 µM |  | 88.7 µM |  | 70.6 µM |  | 49.4 µM |  | > 100 µM |  | > 100 µM |  | > 100 µM |  | 35.3 µM |  | > 100 µM
COc1cc2c3c(n(CCCNCCCCN)c(=O)c2cc1OC)-c1cc2c(cc1C3=O)OCO2 | 0.0829 µM | 22.5 µM | 17.5 µM | > 54.4 µM | 7.31 µM | 29.9 µM | 4.1 µM | > 100 µM | 5.64 µM | > 100 µM | 2.77 µM | 14.1 µM | 0.0764 µM | 5.16 µM | 9.19 µM | 27.6 µM | 7.39 µM | > 58.5 µM | 5.48 µM | 25 µM
CN(C)C/C=C/C(=O)Nc1ccc(C(=O)Nc2cccc(Nc3ncc(Cl)c(-c4c[nH]c5ccccc45)n3)c2)cc1 | < 0.0116 µM |  | 0.229 µM | > 100 µM | 0.021 µM |  | < 0.0148 µM | > 100 µM | 0.0172 µM | 0.094 µM | < 0.0122 µM | 0.0903 µM | 0.0307 µM | 0.81 µM | 0.0346 µM | 0.173 µM | 0.199 µM | 0.666 µM | 0.0963 µM | > 100 µM
COC(=O)COc1ccccc1/C=C1/N=C(c2ccccc2)N(c2c(C)n(C)n(-c3ccccc3)c2=O)C1=O | 43.4 µM | > 100 µM | > 100 µM | > 100 µM | 75.1 µM | > 100 µM | 75.1 µM | > 100 µM | 20 µM | 48 µM | 20.9 µM | 50.9 µM | > 100 µM | > 100 µM | > 100 µM | > 100 µM | > 100 µM | > 100 µM | > 100 µM | > 100 µM
Cc1ncnc2c1ccn2[C@@H]1C[C@H](Oc2cc(C(F)F)c(F)c3c2CNCC3)[C@@H](O)[C@H]1O | > 100 µM | > 100 µM | > 100 µM | > 100 µM | > 100 µM | > 100 µM | > 100 µM | > 100 µM | > 100 µM | > 100 µM | > 100 µM | > 100 µM | > 100 µM | > 100 µM | > 100 µM | > 100 µM | > 100 µM | > 100 µM | > 100 µM | > 100 µM
Cc1c(Br)c(Br)c2c3c1nc(N1CCNCC1)n3CCC2 | 1.75 µM | 3.49 µM | 1.69 µM | 3.33 µM | 2.46 µM | 6.1 µM | 2.14 µM | 5.49 µM | 1.49 µM | 3.14 µM | 1.56 µM | 3.01 µM | 1.67 µM | 3.05 µM | 1.8 µM | 3.55 µM | 1.54 µM | 2.91 µM | 1.87 µM | 4.01 µM
